From patent US9586951B2 (FUJIFILM Corporation, priority 2013, dated 2017)

Legend:
ATM = biological target: T1, ATM (Homo sapiens, UniProt Q13315); assay: ATM inhibition test (phosphorylation of Chk2 generated by ionizing radiation, AlphaScreen SureFire); type: cell-based; conditions: phosphorylated Chk2 in NCI-H460 cells, ionizing radiation 8Gy, 1 hour after test compound treatment; read-out: ATM inhibitory activity
T1 construct: detecting phosphorylation of Chk2 in a human non-small cell lung cancer cell line NCI-H460 (ATCC company); host or cells: NCI-H460 human non-small cell lung cancer cells
T1 sequence (Q13315 whole entry): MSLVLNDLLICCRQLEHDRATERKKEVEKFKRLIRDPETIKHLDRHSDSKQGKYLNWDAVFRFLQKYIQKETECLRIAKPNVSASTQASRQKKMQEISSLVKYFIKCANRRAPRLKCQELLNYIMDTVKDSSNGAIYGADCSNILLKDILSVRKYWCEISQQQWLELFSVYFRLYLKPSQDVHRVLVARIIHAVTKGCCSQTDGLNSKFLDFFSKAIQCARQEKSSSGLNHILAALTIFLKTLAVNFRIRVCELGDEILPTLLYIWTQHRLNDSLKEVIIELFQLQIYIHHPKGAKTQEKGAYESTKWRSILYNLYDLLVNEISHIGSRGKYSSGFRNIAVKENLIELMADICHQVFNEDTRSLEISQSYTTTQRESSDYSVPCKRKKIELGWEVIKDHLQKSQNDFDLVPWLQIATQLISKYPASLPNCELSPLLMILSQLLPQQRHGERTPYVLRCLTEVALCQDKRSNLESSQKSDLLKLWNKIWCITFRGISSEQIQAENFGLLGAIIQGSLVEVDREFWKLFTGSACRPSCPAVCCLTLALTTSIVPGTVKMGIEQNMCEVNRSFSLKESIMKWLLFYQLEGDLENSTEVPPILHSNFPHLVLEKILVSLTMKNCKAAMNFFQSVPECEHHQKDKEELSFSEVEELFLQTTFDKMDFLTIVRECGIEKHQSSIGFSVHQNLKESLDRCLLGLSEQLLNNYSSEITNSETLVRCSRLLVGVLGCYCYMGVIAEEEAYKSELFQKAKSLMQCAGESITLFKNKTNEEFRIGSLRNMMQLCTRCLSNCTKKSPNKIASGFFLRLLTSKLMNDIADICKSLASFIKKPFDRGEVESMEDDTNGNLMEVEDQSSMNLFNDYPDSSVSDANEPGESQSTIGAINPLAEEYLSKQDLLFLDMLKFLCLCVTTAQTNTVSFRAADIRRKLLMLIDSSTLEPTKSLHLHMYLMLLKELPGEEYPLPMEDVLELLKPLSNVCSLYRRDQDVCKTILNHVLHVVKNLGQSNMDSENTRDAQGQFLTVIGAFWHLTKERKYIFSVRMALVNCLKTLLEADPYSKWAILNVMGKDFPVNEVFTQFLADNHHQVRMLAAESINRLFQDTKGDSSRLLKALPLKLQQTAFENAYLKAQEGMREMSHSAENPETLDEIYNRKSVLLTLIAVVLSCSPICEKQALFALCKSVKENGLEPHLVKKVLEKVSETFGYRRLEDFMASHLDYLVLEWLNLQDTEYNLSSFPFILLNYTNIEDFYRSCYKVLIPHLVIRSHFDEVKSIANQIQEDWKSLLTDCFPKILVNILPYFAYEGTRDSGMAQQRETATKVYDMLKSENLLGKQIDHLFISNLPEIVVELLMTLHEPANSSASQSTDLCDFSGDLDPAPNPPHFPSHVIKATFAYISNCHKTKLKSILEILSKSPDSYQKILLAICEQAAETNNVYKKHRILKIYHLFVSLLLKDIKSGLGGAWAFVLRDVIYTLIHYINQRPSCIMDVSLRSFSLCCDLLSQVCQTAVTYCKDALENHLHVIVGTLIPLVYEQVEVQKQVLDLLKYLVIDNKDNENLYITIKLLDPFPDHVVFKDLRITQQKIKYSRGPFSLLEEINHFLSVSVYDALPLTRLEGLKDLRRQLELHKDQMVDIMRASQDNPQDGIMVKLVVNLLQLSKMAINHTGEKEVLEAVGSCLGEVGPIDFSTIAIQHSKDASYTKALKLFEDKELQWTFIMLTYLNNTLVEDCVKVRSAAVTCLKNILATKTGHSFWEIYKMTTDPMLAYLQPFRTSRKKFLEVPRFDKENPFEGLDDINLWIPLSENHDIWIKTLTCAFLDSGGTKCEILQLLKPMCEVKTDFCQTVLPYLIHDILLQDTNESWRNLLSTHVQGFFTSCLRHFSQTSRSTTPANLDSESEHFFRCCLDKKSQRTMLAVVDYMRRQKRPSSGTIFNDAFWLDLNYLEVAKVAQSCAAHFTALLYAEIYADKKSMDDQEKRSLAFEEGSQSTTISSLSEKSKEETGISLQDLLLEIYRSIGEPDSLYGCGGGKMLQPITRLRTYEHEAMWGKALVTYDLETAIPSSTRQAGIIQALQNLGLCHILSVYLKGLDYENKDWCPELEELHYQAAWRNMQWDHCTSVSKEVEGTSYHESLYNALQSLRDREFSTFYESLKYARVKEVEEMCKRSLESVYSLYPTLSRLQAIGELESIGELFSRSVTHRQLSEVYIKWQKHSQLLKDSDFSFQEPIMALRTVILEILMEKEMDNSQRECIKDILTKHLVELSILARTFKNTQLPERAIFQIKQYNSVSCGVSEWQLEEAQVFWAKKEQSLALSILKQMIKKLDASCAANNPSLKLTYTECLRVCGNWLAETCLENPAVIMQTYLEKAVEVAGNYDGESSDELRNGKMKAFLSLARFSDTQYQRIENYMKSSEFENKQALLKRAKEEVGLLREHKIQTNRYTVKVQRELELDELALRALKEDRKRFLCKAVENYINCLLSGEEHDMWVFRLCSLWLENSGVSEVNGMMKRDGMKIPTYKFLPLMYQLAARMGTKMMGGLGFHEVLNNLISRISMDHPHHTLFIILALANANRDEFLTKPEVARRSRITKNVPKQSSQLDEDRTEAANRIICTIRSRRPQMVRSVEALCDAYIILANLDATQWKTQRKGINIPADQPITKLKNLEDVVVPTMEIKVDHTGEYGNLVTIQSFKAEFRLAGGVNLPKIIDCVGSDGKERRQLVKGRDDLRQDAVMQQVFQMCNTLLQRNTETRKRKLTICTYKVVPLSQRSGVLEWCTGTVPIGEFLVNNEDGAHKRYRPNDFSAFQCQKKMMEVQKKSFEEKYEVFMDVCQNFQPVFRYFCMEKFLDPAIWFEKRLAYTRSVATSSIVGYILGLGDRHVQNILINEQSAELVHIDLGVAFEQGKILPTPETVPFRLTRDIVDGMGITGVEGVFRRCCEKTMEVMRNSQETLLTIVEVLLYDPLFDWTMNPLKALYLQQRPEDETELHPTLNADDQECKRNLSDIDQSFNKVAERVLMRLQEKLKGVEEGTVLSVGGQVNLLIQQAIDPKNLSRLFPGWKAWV
How it was run: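 Phosphorylated Chk2 read by AlphaScreen SureFire in human non-small cell lung cancer NCI-H460 cells, 1 hour after 8Gy ionizing radiation at 37° C. Compound added 1 hour before irradiation. Percent inhibition normalised between irradiated and non-irradiated drug-untreated signals.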

[1] = system: human non-small cell lung cancer cell line NCI-H460; assay: Cell proliferation inhibition test by sensitivity-enhancing to ionizing radiation (Cell Titer Glo); type: cell-based; conditions: Homo sapiens, NCI-H460, 120 h, concentration in which SER became 2; NCI-H460 cells, ionizing radiation 2 Gy, cultured 120 hour
Experimental: A human non-small cell lung cancer cell line NCI-H460 (ATCC company) was adjusted so as to be 2×10^3 cells/mL in a RPMI-1640 medium containing penicillin/streptomycin and FBS having a final concentration of 10%, and this was seeded by 100 μL per well in 96-well CellBIND® plates (Corning International Inc.). After 24 hours, the medium of cells was replaced with 100 μL of a medium including serially diluted liquid of the test compound or DMSO having a final concentration of 0.1%. 30 minutes after the medium was replaced, half of the plates were irradiated with ionizing radiation 2 Gy (Faxitron Bioptics, LLC, RX-650 type). The cells of the plates irradiated with ionizing radiation and the plates not being irradiated with ionizing radiation were cultured at 37° C. for 120 hour in 5% CO2. After a Cell Titer Glo reaction liquid of an equal volume was added to each well, the amount of luminescence was measured, according to the instruction book of Cell Titer Glo (Promega Corporation). Since the amount of luminescence is proportional to the ATP concentration in cells, the amount of luminescence was used as an indicator of the number of viable cells. Sensitivity-enhancing effects (SER) to ionizing radiation by the test compound was calculated by the following equation. SER=(amount of luminescence of wells including DMSO having a final concentration of 0.1% in the plates irradiated with ionizing radiation×amount of luminescence of wells including a compound in the plates not being irradiated with ionizing radiation)/(amount of luminescence of wells including the test compound in the plates irradiated with ionizing radiation×amount of luminescence of wells including DMSO having a final concentration of 0.1% in the plates not being irradiated with ionizing radiation)
SER at each compound concentration was plotted by nonlinear regression fit (FitModel (205)) by a sigmoidal dose-response equation using XLfit software (IDBS), and the concentration (SER2) in which SER became 2 was calculated.

Structure (SMILES)	IC50 (ATM)	SER2 (concentration at which the radiation sensitivity-enhancement ratio reaches 2) [1]
O=c1cc(N2CCOCC2)cc(-c2c(F)ccc3c2Oc2ccc(NCc4cncc(Cl)c4)cc2C3)[nH]1 [Example 2-46-2, 6-(7-(((5-Chloropyridin-3-yl)methyl)amino)-3-fluoro-9H-xanthen-4-yl)-4-morpholinopyridin-2(1H)-one]	< 100 nM	100 to 500 nM
COc1cnc(C(C)Nc2ccc3c(c2)Sc2cccc(-c4cc(N5CCOCC5)cc(=O)[nH]4)c2S3)cn1 (stereo not drawn) [Example 1-12-114, 6-(7-((1-(5-Methoxypyrazin-2-yl)ethyl)amino)thianthren-1-yl)-4-morpholino pyridin-2(1H) one]	< 100 nM	100 to 500 nM
C[C@@H]1CN(CCNc2ccc3c(c2)Sc2cccc(-c4cc(N5CCOCC5)cc(=O)[nH]4)c2S3)C[C@H](C)O1 [Example 1-10-14, 6-(7-((2-((2S,6R)-2,6- Dimethylmorpholino)ethyl)amino)thianthren-1-yl)-4-morpholino pyridin-2(1H)-one]	< 100 nM	100 to 500 nM
Cc1cccc(C(C)Nc2ccc3c(c2)Sc2cccc(-c4cc(N5CCOCC5)cc(=O)[nH]4)c2S3)n1 (stereo not drawn) [Example 1-12-30, 6-(7-((1-(6-Methylpyridin-2-yl)ethyl)amino)thianthren-1-yl)-4-morpholino pyridin-2 (1H)-one]	< 100 nM	< 100 nM
Cc1cccc(C(Nc2ccc3c(c2)Sc2cccc(-c4cc(N5CCOCC5)cc(=O)[nH]4)c2S3)C2CCN(C)C2)n1 (single isomer, unassigned) [Example 1-22-6, 6-(7-(((6-Methylpyridin-2-yl)(1-methylpyrrolidin-3-yl)methyl)amino)thianthren-1-yl)-4-morpholino pyridin-2 (1H)-one]	< 100 nM	< 100 nM
Cc1cnc(C(CCN(C)C)Nc2ccc3c(c2)Sc2cccc(-c4cc(N5CCOCC5)cc(=O)[nH]4)c2S3)cn1 (stereo not drawn) [Example 1-22-2, 6-(7-((3-(Dimethylamino)-1-(5-methylpyrazin-2-yl)propyl)amino)thianthren-1-yl)-4-morpholino pyridin-2 (1H)-one]	< 100 nM	100 to 500 nM
Cc1cccc(C(CO)Nc2ccc3c(c2)Sc2cccc(-c4cc(N5CCOCC5)cc(=O)[nH]4)c2S3)n1 (stereo not drawn) [Example 1-12-71, 6-(7-((2-Hydroxy-1-(6-methylpyridin-2-yl)ethyl)amino)thianthren-1-yl)-4-morpholino pyridin-2(1H)-one]	< 100 nM	100 to 500 nM
CC(CCN1CCOCC1)Nc1ccc2c(c1)Sc1cccc(-c3cc(N4CCOCC4)cc(=O)[nH]3)c1S2 (stereo not drawn) [Example 1-42-1, 4-Morpholino-6-(7-((4-morpholinobutan-2-yl)amino)thianthren-1-yl)pyridin-2(1H)-one]	< 100 nM	100 to 500 nM
COc1ccc(CNc2ccc3c(c2)Cc2cccc(-c4cc(N5CCOCC5)cc(=O)[nH]4)c2O3)cn1 [Example 2-2-1, 6-(7-(((6-methoxypyridin-3-yl)methyl)amino)-9H-xanthen-4-yl)-4-morpholinopyridin-2(1H)-one]	< 100 nM	100 to 500 nM
O=c1cc(N2CCOCC2)cc(-c2cccc3c2Oc2ccc(NCc4cncc(C5CC5)c4)cc2C3)[nH]1 [Example 2-2-50, 6-(7-(((5-Cyclopropylpyridin-3-yl)methyl)amino)-9H-xanthen-4-yl)-4-morpholino pyridin-2 (1H)-one]	< 100 nM	100 to 500 nM
Cc1ccnc(C(C)Nc2ccc3c(c2)Sc2cccc(-c4cc(N5CCOCC5)cc(=O)[nH]4)c2S3)c1 (stereo not drawn) [Example 1-12-29]	< 100 nM	< 100 nM
Cc1cccc(C(C)Nc2ccc3c(c2)Cc2cccc(-c4cc(N5CCOCC5)cc(=O)[nH]4)c2O3)n1 (stereo not drawn) [Example 2-14-18, 6-(7-((1-(6-Methylpyridin-2-yl)ethyl)amino)-9H-xanthen-4-yl)-4-morpholino pyridin-2(1H)-one]	100 to 500 nM	100 to 500 nM
O=c1cc(N2CCOCC2)cc(-c2cccc3c2Sc2ccc(NCc4cc(Cl)ccn4)cc2S3)[nH]1 [Example 1-12-3, 6-(7-(((4-Chloropyridin-2-yl)methyl)amino)thianthren-1-yl)-4-morpholino pyridin-2 (1H)-one]	< 100 nM	100 to 500 nM
O=c1cc(N2CCOCC2)cc(-c2cccc3c2Oc2ccc(NCc4cncc(C(F)(F)F)c4)cc2C3)[nH]1 [Example 2-13-4, 4-Morpholino-6-(7-(((5-(trifluoromethyl)pyridin-3-yl)methyl)amino)-9H-xanthen-4-yl)pyridin-2(1H)-one]	< 100 nM	100 to 500 nM
CCC(CN1CCOCC1)Nc1ccc2c(c1)Sc1cccc(-c3cc(N4CCOCC4)cc(=O)[nH]3)c1S2 (stereo not drawn) [Example 1-13-1, 4-Morpholino-6-(7-((1-morpholinobutan-2-yl)amino)thianthren-1-yl)pyridin-2(1H)-one]	< 100 nM	100 to 500 nM
COc1cncc(CNc2ccc3c(c2)Sc2cccc(-c4cc(N5CCOCC5)cc(=O)[nH]4)c2O3)c1 [Example 4-8-1, 6-(8-(((5-Methoxypyridin-3-yl)methyl)amino)phenoxathiin-4-yl)-4-morpholinopyridin-2(1H)-one]	< 100 nM	100 to 500 nM
Cc1cccc(C(C)Nc2ccc3c(c2)Cc2cccc(-c4cc(N5CCOCC5)cc(=O)[nH]4)c2O3)n1 (single isomer, unassigned) [Example 2-14-85-2, 6-(7-((1-(6-methylpyridin-2-yl)ethyl)amino)-9H-xanthen-4-yl)-4-morpholinopyridin-2(1H)-one]	< 100 nM	< 100 nM

Further lines, with some results ahead:

IC50 (ATM)	Structure (SMILES)	SER2 (concentration at which the radiation sensitivity-enhancement ratio reaches 2) [1]
< 100 nM	O=c1cc(N2CCOCC2)cc(-c2cccc3c2Oc2ccc(NCc4ccc(Cl)s4)cc2C3)[nH]1 [Example 2-13-7, 6-(7-(((5-Chlorothiophen-2-yl)methyl)amino)-9H-xanthen-4-yl)-4-morpholino pyridin-2(1H)-one]	500 to 2000 nM
< 100 nM	CC(CN1CCN(c2ccccc2)CC1)Nc1ccc2c(c1)Sc1cccc(-c3cc(N4CCOCC4)cc(=O)[nH]3)c1S2 (stereo not drawn) [Example 1-13-15, 4-Morpholino-6-(7-((1-(4-phenylpiperazin-1-yl)propan-2-yl)amino)thianthren-1-yl)pyridin-2 (1H)-one]	100 to 500 nM
< 100 nM	CC(Nc1ccc2c(c1)Sc1cccc(-c3cc(N4CCOCC4)cc(=O)[nH]3)c1S2)c1cc(CF)ncn1 (stereo not drawn) [Example 1-12-91, 6-(7-((1-(6-(Fluoromethyl)pyrimidin-4-yl)ethyl)amino)thianthren-1-yl)-4-morpholino pyridin-2(1H)-one]	100 to 500 nM
< 100 nM	Cc1cnc(C(CF)Nc2ccc3c(c2)Sc2cccc(-c4cc(N5CCOCC5)cc(=O)[nH]4)c2S3)nc1 (stereo not drawn) [Example 1-12-93, 6-(7-((2-Fluoro-1-(5-methylpyrimidin-2-yl)ethyl)amino)thianthren-1-yl)-4-morpholino pyridin-2(1H)-one]	100 to 500 nM
100 to 500 nM	COc1ncc(CNc2ccc3c(c2)Cc2cccc(-c4cc(N5CCOCC5)cc(=O)[nH]4)c2O3)cc1F [Example 2-2-18, 6-(7-(((5-Fluoro-6-methoxypyridin-3-yl)methyl)amino)-9H-xanthen-4-yl)-4-morpholino pyridin-2(1H)-one]	500 to 2000 nM
< 100 nM	COc1cc(CNc2ccc3c(c2)Sc2cccc(-c4cc(N5CCOCC5)cc(=O)[nH]4)c2O3)cnc1OC [Example 4-4-12, 6-(8-(((5,6-Dimethoxypyridin-3-yl)methyl)amino)phenoxathiin-4-yl)-4-morpholino pyridin-2(1H)-one]	100 to 500 nM
< 100 nM	O=c1cc(N2CCOCC2)cc(-c2cccc3c2Oc2ccc(NCc4ccnc(Br)c4)cc2S3)[nH]1 [Example 4-4-16, 6-(8-(((2-Bromopyridin-4-yl)methyl)amino)phenoxathiin-4-yl)-4-morpholino pyridin-2(1H)-one]	100 to 500 nM
